Measured values reported in patent US11390625B2, “Aryl-phosphorus-oxygen compound as EGFR kinase inhibitor” (Chia Tai Tianqing Pharmaceutical Group Co., Ltd., priority 2017, dated 2022).

Legend:
[1] = system: Ba/F3 (Δ19del/T790M/C797S) xenograft; test: In vivo efficacy (1): Ba/F3 (Δ19del/T790M/C797S) subcutaneous xenograft (CDX) in BALB/c nude mice; conditions: for TGI (the tumor inhibition value): 45 mg/kg oral daily, 13 consecutive days;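 as to all read-outs here: female nude mice, dosing begun at mean tumor size near 80–120 mm^3, tumors measured by caliper twice weekly, volume in mm^3 computed as 0.5×long×short diameter squared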
Description: BALB/c nude mice, female, 6-8 weeks old, 18-20 g of body weight, were housed in SPF-grade environment, and each cage was individually ventilated (5 mice per cage). […] A total of 48 mice purchased from Beijing Weitonglihua company were used for the study. Each mouse was implanted with cells at the right flank, for tumor growth. The experiment was started when the average tumor volume reached approximately 80-120 mm^3. […] Tumor volume was measured twice a week with a two-dimensional caliper, measured in mm^3 and calculated by the following formula: V=0.5a×b^2, wherein a and b are the long and short diameters of the tumor, respectively. Antitumor efficacy was determined by dividing the average increase of the tumor volume of the animals treated with the compound by the average increase of the tumor volume of the untreated animals.

[2] = system: pEGFR Ba/F3 (EGFR Δ19del/T790M/C797S) cells; test: Cell phosphorylation inhibition experiment, pEGFR Ba/F3 (EGFR Δ19del/T790M/C797S); assay type: cell-based; conditions: Ba/F3 EGFR; Ba/F3 cells, EGF stimulated; read-out: Effect on cellular EGFR phosphorylation Ba/F3(Δ19del/T790M/C797S) IC50
Description: The test compounds and reference compounds were diluted with 100% DMSO to 10 mM or 1 mM, and then a gradient dilution was performed by using Echo, 150 nL per well, with a three-fold concentration gradient and a ten-point dose response curve. The final concentration of the compounds was 100 μM or 10 μM. The suspension cells was centrifuged at 1000 rp for 5 minutes, suspend in Hanks' balanced salt solution, and added to a 384-well plate containing the compounds at 10 L/120K/well (the cell density of 1.2×10^7), followed by centrifugation at 1200 rpm for 30 s and incubation at 37° C. for 30 min. 5 μL of EGF (which has been diluted with 0.1% BSA Hanks' balanced salt solution) was added to each well, in which the final concentration of EGF was 1 μM. The plate was centrifuged at 1200 rpm for 30 s and incubated at 37° C. for 20 min. 5 μL of 4× lysis buffer containing blocking solution was added to each well, and then the plate was centrifuged at 1200 rpm for 30 s, and incubated at 37° C. for 30 min.

[3] = system: A431 cells (EGFR WT); test: Cell antiproliferation experiment (1), A431 cells, CellTiter Glo; assay type: cell-based; conditions: Homo sapiens, A-431, 72 h, read-out: anti-proliferation effect on cells A431 EGFR WT IC50
Description: 1) Cell Culture and Passage
(1) A431 medium: 88% DMEM+10% fetal bovine serum+1% L-glutamine+1% double-antibody
(2) A431 cells were isolated and passaged every 3-4 days, wherein the number of the cells for 3-day passage was 5e6 cells per T75 culture flask, and the number of the cells for 4-day passage was 3e6 cells per T75 culture flask.
2) Day 1: Preparation of Cell Plate
(1) Phosphate buffer, trypsin, and a culture medium were placed in a water bath at 37° C. to preheat.
(2) The original medium was removed from the cell culture flask and washed once with 6 mL of PBS.
(3) 5 mL of phosphate buffer was pipetted into the culture flask to rinse the cells (passage 17), and then the liquid was discarded.
(4) The cell culture flask was added with 3.5 mL of trypsin, and shaken gently, trypsin was removed after fully contact with the cells, and then the culture flask was placed in an incubator containing 5% CO2 at 37° C. for about 1 minute;
(5) The cells were resuspended in 10 mL cell culture medium, and about 0.6 mL of cell suspension was take out for counting (ViCell XR);
(6) The cell suspension was diluted with the medium to the cell density of 5e4 cells per ml, which was required for plating (cell concentration: 2500 cells per well);
(7) 100 μL of phosphate buffer solution was added to each well around the cell plate, while 50 μL of the cell suspension was added to other wells, and the plate was incubated overnight in a incubator containing 5% CO2 at 37° C.
(1) 9 μL of the compound (concentration: 1 mM) was added into a shallow well plate for Echo.
(2) The shallow well plate was centrifuged at 1000 rpm for 10 s and the cell plate was removed from the incubator.
(3) According to the layout of the microplate, the compounds was diluted with a three-fold concentration gradient using Echo, each compound was diluted to 10 concentration gradients and 250 nL of the diluted compounds was respectively added to the cell plate, and then the cell plate was returned to the incubator and further incubated for 3 days.
4) Day 5: Adding CTG and Reading the Plate
(1) After incubation for 72 h, 25 μL of CellTiter Glo was added to each well of the cell plate, followed by shaking the plate for 10 min in the dark.
(2) The plate was read on Envision.
Data analysis: By computer fitting, the corresponding concentration of the compound at 50% inhibition rate was read as the IC50 of the compound for inhibiting cell activity.

[4] = Plasma, tumor and lung exposure in mice of the Ba/F3 CDX efficacy experiment; assay type: in vivo; conditions: mouse, 15.0 mg/kg/day oral; for concentration at 2 h / Lung, 2 h / Tumor, 2 h: 2 h after administration
Description: On Day 14 after administration to the groups for the efficacy experiment, the plasma was collected from the mice by submandibular blood collection before last administration and 2 hours after last administration, and the plasma samples were collected from the mice at 1 h, 4 h, 8 h and 24 h after administration. About 100 ul of blood was collected each time, placed in an anticoagulation tube, and centrifuged at 8000 rpm for 7 min, to collect plasma, which was stored at −80° C.

| SMILES | Tumor volume Day 0 ([1]; 5 mg/kg/day oral) | Tumor volume Day 2 ([1]; 5 mg/kg/day oral) | Tumor volume Day 5 ([1]; 5 mg/kg/day oral) | Tumor volume Day 8 ([1]; 5 mg/kg/day oral) | Tumor volume Day 10 ([1]; 5 mg/kg/day oral) | Tumor volume Day 12 ([1]; 5 mg/kg/day oral) | Tumor volume Day 13 ([1]; 5 mg/kg/day oral) | Tumor volume Day 0 ([1]; 15 mg/kg/day oral) | Tumor volume Day 2 ([1]; 15 mg/kg/day oral) | Tumor volume Day 5 ([1]; 15 mg/kg/day oral) | Tumor volume Day 8 ([1]; 15 mg/kg/day oral) | Tumor volume Day 10 ([1]; 15 mg/kg/day oral) | Tumor volume Day 12 ([1]; 15 mg/kg/day oral) | Tumor volume Day 13 ([1]; 15 mg/kg/day oral) | TGI (the tumor inhibition value) [1] | Tumor volume Day 0 ([1]; 45 mg/kg/day oral) | Tumor volume Day 2 ([1]; 45 mg/kg/day oral) | Tumor volume Day 5 ([1]; 45 mg/kg/day oral) | Tumor volume Day 8 ([1]; 45 mg/kg/day oral) | Tumor volume Day 10 ([1]; 45 mg/kg/day oral) | other results |
| --- | --- | --- | --- | --- | --- | --- | --- | --- | --- | --- | --- | --- | --- | --- | --- | --- | --- | --- | --- | --- | --- |
| CCc1cc(Nc2ncc(Br)c(Nc3ccc4nccnc4c3P(C)(C)=O)n2)c(OC)cc1N1CCC(N2CCN(C)CC2)CC1 [Compound 41] | 84 mm^3 | 103 mm^3 | 203 mm^3 | 348 mm^3 | 485 mm^3 | 707 mm^3 | 814 mm^3 | 84 mm^3 | 68 mm^3 | 69 mm^3 | 82 mm^3 | 115 mm^3 | 146 mm^3 | 211 mm^3 | 109% | 84 mm^3 | 47 mm^3 | 24 mm^3 | 7 mm^3 | 4 mm^3 | Tumor volume Day 12 ([1]; 45 mg/kg/day oral): 0 mm^3; Tumor volume Day 13 ([1]; 45 mg/kg/day oral): 0 mm^3; IC50 [2]: 0.025 µM; IC50 [3]: 0.245 µM; AUC(0-t) ([4]; BALB/c nude, plasma): 122 µM·h; half-life ([4]; BALB/c nude, plasma): 20.5 h; concentration at 2 h ([4]; BALB/c nude, plasma): 6.99 µM; Lung, 2 h [4]: 29567 nmol/kg; Tumor, 2 h [4]: 18567 nmol/kg |
| COc1cc(N2CCC(N3CCN(C)CC3)CC2)c(C)cc1Nc1ncc(Br)c(Nc2ccc3nccnc3c2P(C)(C)=O)n1 [Compound 34] | 84 mm^3 | 108 mm^3 | 212 mm^3 | 395 mm^3 | 505 mm^3 | 748 mm^3 | 881 mm^3 | 84 mm^3 | 76 mm^3 | 107 mm^3 | 126 mm^3 | 176 mm^3 | 292 mm^3 | 326 mm^3 | 101% | 84 mm^3 | 56 mm^3 | 32 mm^3 | 35 mm^3 | 42 mm^3 | Tumor volume Day 12 ([1]; 45 mg/kg/day oral): 73 mm^3; Tumor volume Day 13 ([1]; 45 mg/kg/day oral): 68 mm^3; IC50 [2]: 0.019 µM; IC50 [3]: 0.154 µM; half-life ([4]; BALB/c nude, plasma): 10 h; concentration at 2 h ([4]; BALB/c nude, plasma): 3.55 µM; Lung, 2 h [4]: 32533 nmol/kg; Tumor, 2 h [4]: 16667 nmol/kg |
